Measurements published in PubChem BioAssay AID328 (DTP/NCI, 2004).
Several values for one entry are separate records, joined by “and”; a condition that tells them apart may be missing. Equal entries are not always repeated. Toxic doses and inconclusive results are not listed.

Tested on: BDF1 mice, P388 leukemia ip, median survival T/C
Assay: NCI In Vivo Anticancer Drug Screen. Data for tumor model P388 Leukemia (intraperitoneal) in B6D2F1 (BDF1) mice
Conditions: endpoint: median survival time, higher = longer survival
Procedure, shortened: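 Vehicle-dosed animals serve as the reference; survival of compound-dosed, tumour-implanted mice is divided by it.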

[1] = dose: 100.0 mg/kg/injection, schedule: Q04DX003 (ip), vehicle: Klucel (hydroxypropylcellulose) (HPC)
[2] = dose: 200.0 mg/kg/injection, schedule: Q04DX003 (ip), vehicle: Klucel (hydroxypropylcellulose) (HPC)
[3] = dose: 400.0 mg/kg/injection, schedule: Q04DX003 (ip), vehicle: Klucel (hydroxypropylcellulose) (HPC)
[4] = dose: 6.25 mg/kg/injection, schedule: Q01DX009 (ip), vehicle: saline with Tween-80
[5] = dose: 12.5 mg/kg/injection, schedule: Q01DX009 (ip), vehicle: saline with Tween-80
[6] = dose: 25.0 mg/kg/injection, schedule: Q01DX009 (ip), vehicle: saline with Tween-80
[7] = dose: 50.0 mg/kg/injection, schedule: Q01DX009 (ip), vehicle: saline with Tween-80
[8] = dose: 100.0 mg/kg/injection, schedule: Q04DX003 (ip), vehicle: saline with Tween-80
[9] = dose: 400.0 mg/kg/injection, schedule: Q04DX003 (ip), vehicle: saline with Tween-80
[10] = dose: 6.25 mg/kg/injection, schedule: Q01DX009 (ip), vehicle: saline

CCCCNS(=O)(=O)c1ccc(OC)c(N)c1
T/C [1]: 95 % of control | T/C [2]: 100 % of control | T/C [3]: 100 % of control

Nc1ccc(Nc2ccncc2)cc1
T/C (dose: 50.0 mg/kg/injection, schedule: Q04DX003 (ip), vehicle: Klucel (hydroxypropylcellulose) (HPC)): 100 % of control | T/C [1]: 95 % of control | T/C [2]: 90 % of control

O=S(=O)(O)CNc1ccccc1
T/C (dose: 100.0 mg/kg/injection, schedule: Q04DX003 (ip), vehicle: saline): 100 % of control | T/C (dose: 200.0 mg/kg/injection, schedule: Q04DX003 (ip), vehicle: saline): 109 % of control | T/C (dose: 400.0 mg/kg/injection, schedule: Q04DX003 (ip), vehicle: saline): 95 % of control

CC(C)(C)c1ccc(C(c2ccc(C(C)(C)C)cc2)C(Cl)Cl)cc1
T/C [1]: 91 % of control | T/C [2]: 91 % of control | T/C [3]: 95 % of control

O=C1C=C(C2OC(CO)C(O)C2O)C(=O)N1 (centres undefined)
T/C (dose: 0.2 mg/kg/injection, schedule: Q01DX010 (ip), vehicle: saline): 110 % of control | T/C (dose: 0.37 mg/kg/injection, schedule: Q01DX001 (ip), vehicle: saline): 95 % of control | T/C (dose: 0.5 mg/kg/injection, schedule: Q01DX010 (ip), vehicle: saline): 110 % of control | T/C (dose: 0.75 mg/kg/injection, schedule: Q01DX001 (ip), vehicle: saline): 91 % of control | T/C (dose: 1.5 mg/kg/injection, schedule: Q01DX001 (ip), vehicle: saline): 95 % of control | T/C (dose: 2.0 mg/kg/injection, schedule: Q01DX010 (ip), vehicle: saline): 150 % of control | T/C (dose: 3.0 mg/kg/injection, schedule: Q01DX001 (ip), vehicle: saline): 110 % of control | T/C (dose: 6.0 mg/kg/injection, schedule: Q01DX001 (ip), vehicle: saline): 100 % of control | T/C (dose: 8.0 mg/kg/injection, schedule: Q01DX010 (ip), vehicle: saline): 150 % of control and 155 % of control and 157 % of control | T/C (dose: 12.0 mg/kg/injection, schedule: Q01DX001 (ip), vehicle: saline): 100 % of control | T/C (dose: 16.0 mg/kg/injection, schedule: Q01DX010 (ip), vehicle: saline): 121 % of control

COc1cc(/C=N/NC(=O)COCC(=O)N/N=C/c2ccc(O)cc2OC)ccc1O
T/C (dose: 200.0 mg/kg/injection, schedule: Q01DX005 (ip), vehicle: saline with Tween-80): 96 % of control

CNC(=S)N/N=C(\C)c1ccccn1
T/C [4]: 102 % of control | T/C [5]: 121 % of control | T/C [6]: 102 % of control

CN(C)CCN1C(=O)c2cccc3cc([N+](=O)[O-])cc(c23)C1=O
T/C (dose: 3.13 mg/kg/injection, schedule: Q01DX009 (ip), vehicle: saline with Tween-80): 160 % of control | T/C [4]: 215 % of control

O=c1[nH]c(Cl)nc2c(Cl)c(C(Cl)(Cl)Cl)nn12
T/C [6]: 104 % of control | T/C (dose: 25.0 mg/kg/injection, schedule: Q04DX003 (ip), vehicle: saline with Tween-80): 113 % of control | T/C [7]: 109 % of control | T/C (dose: 50.0 mg/kg/injection, schedule: Q04DX003 (ip), vehicle: saline with Tween-80): 120 % of control | T/C (dose: 100.0 mg/kg/injection, schedule: Q01DX009 (ip), vehicle: saline with Tween-80): 106 % of control | T/C [8]: 93 % of control and 104 % of control | T/C (dose: 200.0 mg/kg/injection, schedule: Q01DX009 (ip), vehicle: saline with Tween-80): 109 % of control | T/C (dose: 400.0 mg/kg/injection, schedule: Q01DX009 (ip), vehicle: saline with Tween-80): 104 % of control | T/C [9]: 86 % of control

CCCCCCCOc1cccc(OCCCC[N+]2(CC)CCCCC2)c1
T/C [10]: 110 % of control

CCOC(=O)Nc1nc2ccccc2[nH]1
T/C [4]: 98 % of control | T/C [5]: 116 % of control | T/C [6]: 109 % of control | T/C [7]: 105 % of control

O=C1CCC(=O)N1CC(O)COc1ccc(Cl)cc1 (centres undefined)
T/C [8]: 100 % of control | T/C (dose: 200.0 mg/kg/injection, schedule: Q04DX003 (ip), vehicle: saline with Tween-80): 95 % of control | T/C [9]: 100 % of control

N=C(N)SCc1ccc(CSC(=N)N)s1
T/C [10]: 97 % of control | T/C (dose: 12.5 mg/kg/injection, schedule: Q01DX009 (ip), vehicle: saline): 106 % of control | T/C (dose: 25.0 mg/kg/injection, schedule: Q01DX009 (ip), vehicle: saline): 106 % of control
